Reference: paper PMC3763632, “Radiosynthesis and Radiotracer Properties of a 7-(2-[^18F]Fluoroethoxy)-6-methoxypyrrolidinylquinazoline for Imaging of Phosphodiesterase 10A with PET” (Pharmaceuticals, 2012)
Several values for one entry are separate records, joined by “and”; a condition that tells them apart may be missing. Equal values may be shown once.

Assays:
[1] = Biodistribution after i.v. injection; assay type: in vivo, female CD-1 mice
Description: The organ distribution of [^18F]IV after i.v. injection was investigated in female CD-1 mice. Time-activity data for ^18F corresponding uptake in peripheral organs, in the brain and in particular in the striatum at 5, 30, 60 and 120 min p.i. are presented in Table 2.
Conscious mice received a tail-vein injection of about 300 kBq of [^18F]IV, dissolved in 200 µL isotonic saline. At 5, 30, 60 and 120 min p.i. animals (n = 3–6 per time) were anaesthetized, and blood and urine samples were taken. After sacrifice, organs of interest were removed, separated, weighed, and radioactivity was measured in a calibrated γ-counter (Wallac WIZARD, Perkin Elmer, Waltham, MA, USA). Striatum was dissected from the brain and investigated separately. The percentage of the injected dose per gram of wet tissue (% ID/g) was calculated by the quotient of tissue counts and initial dose counts, and weight of the tissue sample.

[2] = log D7.2-7.4 by shake-flask method; assay type: physicochemical; conditions: overall value from HPLC and shake-flask determinations; read-out: experimental log D7.0–7.4
Description: To clarify these findings, we determined the ligand distribution coefficients for [^18/19F]IV experimentally, under physiological pH conditions in solid-liquid phase systems via retention on RP-HPLC, and in liquid-liquid phase systems by conventional shake-flask method. […] All in one, an experimental log D7.0–7.4 value of ~2.7 promised a good potential for brain uptake of [^18F]IV in vivo, attended by low unspecific binding.
Log D7.2–7.4 values of [^18F]IV were determined using a conventional shake-flask method (multiple distribution in triplicates). Measurements of distribution coefficients were performed in 3 series at 21 °C between n-octanol and three aqueous buffer solutions, physiological phosphate-saline (0.1 M Na3PO4, 0.15 M NaCl, pH 7.2), phosphate buffer (KH2PO4/Na2HPO4•2H2O, 50 mM, pH 7.2) or TRIS-HCl buffer (50 mM, pH 7.4 at 21 °C). Solutions of [^18F]IV (2–5 MBq) in MeCN, MeOH (100 μL) or in 5% ethanol/0.9% NaCl (10 μL) were added to a 15 mL polypropylene tube (n = 3 per buffer system) containing a two-layer system of a selected aqueous solution (3 mL) and n-octanol (3 mL). […] Radioactivity of these samples was quantified using a calibrated γ-counter (Wallac WIZARD, Perkin Elmer, Waltham, MA, USA). […] Distribution coefficients and log D7.2–7.4 values of [^18F]IV were calculated with Microcal^TM Origin (6.0, Microcal Software, Inc., Northhampton, MA, USA).

## COc1cc2c(N3CC[C@@H](Oc4cnc5ccccc5n4)C3)ncnc2cc1OCC[18F] [[^18F]IV, (R)-7-(2-[^18F]Fluoroethoxy)-6-methoxy-4-(3-(quinoxalin-2-yloxy)pyrrolidin-1-yl)quinazoline]
[1]; 30 min p.i., mice
  striatum-to-blood ratio: 1.0
[1]; 60 min p.i., mice
  striatum-to-blood ratio: 0.8
[1]; 120 min p.i., mice
  striatum-to-blood ratio: 0.8
[1]; control, 5 min p.i.
  18F uptake, Adrenals: 25.4 ± 5.87 % ID/g Wet Weight
  18F uptake, Bladder: 1.85 ± 0.39 % ID/g Wet Weight
  18F uptake, Blood: 1.88 ± 0.08 % ID/g Wet Weight
  18F uptake, Brain: 1.99 ± 0.21 % ID/g Wet Weight
  18F uptake, Colon: 0.55 ± 0.05 % ID/g Wet Weight
  18F uptake, Femurs: 2.00 ± 0.36 % ID/g Wet Weight
  18F uptake, Femurs (fl.) (flushed): 1.11 ± 0.32 % ID/g Wet Weight
  18F uptake, Gonads: 2.58 ± 0.46 % ID/g Wet Weight
  18F uptake, Heart: 4.01 ± 0.47 % ID/g Wet Weight
  18F uptake, Intestine: 13.5 % ID/g Wet Weight and 13.5 ± 4.15 % ID/g Wet Weight
  18F uptake, Kidneys: 7.65 ± 0.54 % ID/g Wet Weight
  18F uptake, Liver: 20.5 % ID/g Wet Weight and 20.5 ± 1.87 % ID/g Wet Weight
  18F uptake, Lungs: 4.01 ± 0.51 % ID/g Wet Weight
  18F uptake, Muscles: 1.75 ± 0.12 % ID/g Wet Weight
  18F uptake, Pancreas: 5.19 ± 0.42 % ID/g Wet Weight
  18F uptake, Plasma: 3.97 ± 1.41 % ID/g Wet Weight
  18F uptake, Spleen: 4.23 ± 0.51 % ID/g Wet Weight
  18F uptake, Stomach: 6.14 ± 2.04 % ID/g Wet Weight
  18F uptake, Striatum: 2.3 % ID/g Wet Weight and 2.32 % ID/g Wet Weight and 2.32 ± 0.49 % ID/g Wet Weight
  18F uptake, Thymus: 3.10 ± 0.45 % ID/g Wet Weight
  18F uptake, Urine: 56.4 % ID/g Wet Weight and 56.4 ± 105 % ID/g Wet Weight
[1]; control, 30 min p.i.
  18F uptake, Bladder: 3.51 ± 1.39 % ID/g Wet Weight
  18F uptake, Blood: 1.69 ± 0.38 % ID/g Wet Weight
  18F uptake, Brain: 1.54 ± 0.30 % ID/g Wet Weight
  18F uptake, Colon: 0.88 ± 0.44 % ID/g Wet Weight
  18F uptake, Femurs: 2.14 ± 1.13 % ID/g Wet Weight
  18F uptake, Femurs (fl.) (flushed): 0.67 ± 0.24 % ID/g Wet Weight
  18F uptake, Gonads: 3.94 ± 0.84 % ID/g Wet Weight
  18F uptake, Heart: 2.93 ± 0.71 % ID/g Wet Weight
  18F uptake, Intestine: 43.2 ± 21.9 % ID/g Wet Weight
  18F uptake, Kidneys: 5.34 ± 1.4 % ID/g Wet Weight
  18F uptake, Liver: 16.4 ± 4.00 % ID/g Wet Weight
  18F uptake, Lungs: 3.51 ± 1.26 % ID/g Wet Weight
  18F uptake, Muscles: 1.31 ± 0.32 % ID/g Wet Weight
  18F uptake, Pancreas: 3.14 ± 0.70 % ID/g Wet Weight
  18F uptake, Plasma: 2.87 ± 0.54 % ID/g Wet Weight
  18F uptake, Spleen: 2.85 ± 0.60 % ID/g Wet Weight
  18F uptake, Stomach: 15.8 ± 6.09 % ID/g Wet Weight
  18F uptake, Striatum: 1.69 ± 0.44 % ID/g Wet Weight
  18F uptake, Thymus: 2.61 ± 0.50 % ID/g Wet Weight
  18F uptake, Urine: 18.5 ± 16.8 % ID/g Wet Weight
[1]; control, 60 min p.i.
  18F uptake, Adrenals: 28.2 ± 11.4 % ID/g Wet Weight
  18F uptake, Bladder: 2.60 ± 0.78 % ID/g Wet Weight
  18F uptake, Blood: 1.45 ± 0.20 % ID/g Wet Weight
  18F uptake, Brain: 1.08 ± 0.26 % ID/g Wet Weight
  18F uptake, Colon: 1.08 ± 0.43 % ID/g Wet Weight
  18F uptake, Femurs: 2.95 ± 3.73 % ID/g Wet Weight
  18F uptake, Femurs (fl.) (flushed): 0.58 ± 0.42 % ID/g Wet Weight
  18F uptake, Gonads: 3.50 ± 1.22 % ID/g Wet Weight
  18F uptake, Heart: 2.16 ± 0.45 % ID/g Wet Weight
  18F uptake, Intestine: 42.8 % ID/g Wet Weight and 42.8 ± 33.5 % ID/g Wet Weight
  18F uptake, Kidneys: 4.29 ± 0.93 % ID/g Wet Weight
  18F uptake, Liver: 14.5 ± 4.54 % ID/g Wet Weight
  18F uptake, Lungs: 2.37 ± 0.62 % ID/g Wet Weight
  18F uptake, Muscles: 1.22 ± 0.28 % ID/g Wet Weight
  18F uptake, Pancreas: 2.77 ± 0.85 % ID/g Wet Weight
  18F uptake, Plasma: 2.59 ± 0.36 % ID/g Wet Weight
  18F uptake, Spleen: 2.30 ± 0.25 % ID/g Wet Weight
  18F uptake, Stomach: 12.6 ± 5.08 % ID/g Wet Weight
  18F uptake, Striatum: 1.14 ± 0.29 % ID/g Wet Weight
  18F uptake, Thymus: 2.08 ± 0.51 % ID/g Wet Weight
  18F uptake, Urine: 23.1 ± 9.31 % ID/g Wet Weight
[1]; control, 60 min p.i., single values, n = 2
  18F uptake, Skin: 1.45 % ID/g Wet Weight and 1.17 % ID/g Wet Weight
[1]; control, 120 min p.i.
  18F uptake, Adrenals: 19.3 ± 13.2 % ID/g Wet Weight
  18F uptake, Bladder: 1.62 ± 0.28 % ID/g Wet Weight
  18F uptake, Blood: 1.05 ± 0.10 % ID/g Wet Weight
  18F uptake, Brain: 0.77 ± 0.10 % ID/g Wet Weight
  18F uptake, Colon: 3.49 ± 2.41 % ID/g Wet Weight
  18F uptake, Femurs: 1.61 ± 0.35 % ID/g Wet Weight
  18F uptake, Femurs (fl.) (flushed): 1.15 ± 0.18 % ID/g Wet Weight
  18F uptake, Gonads: 1.64 ± 0.26 % ID/g Wet Weight
  18F uptake, Heart: 1.33 ± 0.20 % ID/g Wet Weight
  18F uptake, Intestine: 49.3 ± 8.03 % ID/g Wet Weight
  18F uptake, Kidneys: 2.13 ± 0.44 % ID/g Wet Weight
  18F uptake, Liver: 7.05 % ID/g Wet Weight and 7.05 ± 1.10 % ID/g Wet Weight
  18F uptake, Lungs: 1.46 ± 0.26 % ID/g Wet Weight
  18F uptake, Muscles: 0.66 ± 0.01 % ID/g Wet Weight
  18F uptake, Pancreas: 1.41 ± 0.07 % ID/g Wet Weight
  18F uptake, Plasma: 2.13 ± 0.80 % ID/g Wet Weight
  18F uptake, Spleen: 1.21 ± 0.24 % ID/g Wet Weight
  18F uptake, Stomach: 10.1 ± 5.96 % ID/g Wet Weight
  18F uptake, Striatum: 0.83 ± 0.10 % ID/g Wet Weight
  18F uptake, Thymus: 1.26 ± 0.07 % ID/g Wet Weight
  18F uptake, Urine: 30.9 % ID/g Wet Weight and 30.9 ± 8.06 % ID/g Wet Weight
[1]; mice, time not specified
  uptake of radioactivity in femur: ~ 2 % ID/g
  uptake of radioactivity in femur after removal of bone marrow: about 1 % ID/g
[2]
  logD: ~2.7
